Experimental data taken from patent US20250319067A1, “Improved Pharmacokinetics of Tryptamine Prodrugs” (Reunion Neuroscience, Inc., priority 2023, published 2025).

Experiments:
[1] = tested on: primary human hepatocytes; assay: Metabolite profiling in plated human hepatocytes; settings: 1 μM, pooled plated human hepatocytes
Procedure: The formation of metabolites was monitored at 0, 4, 8, and 24 hours, respectively. […] Samples for positive and negative controls were determined at 0, 8, and 24 hours, respectively. RE104 and its metabolites were identified and profiled using ultrahigh-performance liquid chromatography (Supplemental Methods).
The quenched samples were pipetting mixed, harvested, and stored at −70° C. or lower until liquid chromatography tandem mass spectrometry analysis. […] The plated human hepatocyte incubation samples were frozen at ≤−70° C. or lower immediately and thawed to room temperature before sample processing. A 500-μL aliquot of each sample was transferred to matrix tubes (1.4 mL), followed by the addition of 500-μL mixed solvent acetonitrile:methanol:for mic acid (50:50:0.1, v/v/v). The resulting mixtures were vortex mixed for 2 minutes and centrifuged at 3000 rpm for 10 minutes. The supernatants from the triplicate incubations were pooled to generate the pooled samples (1.5 mL/each) for the LC-MS analysis.
For all metabolite identification and profiling experiments, RE104 and its metabolites were identified and profiled by UHPLC in a Shimadzu Nexeran™ UHPLC system coupled with a high-resolution mass spectrometer SCIEX 6600 Triple TOF®. Mass spectrometry analysis was carried out by using an electrospray ionization source operating in positive ion mode with full-scan TOF MS and MS/MS modes. […]

[2] = Metabolite profiling in monkey plasma after SC RE104; format: in vivo, cynomolgus monkey; settings: pooled plasma 0 to 12 hours post dose, SC 0.5 mg/kg RE104
Excerpt: Blood samples were centrifuged to obtain plasma.

[3] = Plasma protein binding, animal plasma; format: in vitro ADME; settings: animal plasma proteins
[4] = tested on: healthy females; assay: Phase 1 FIH study: modified Drug Effect Questionnaire (DEQ-High); format: in vivo, human; settings: plasma concentration below 40 ng/mL
Procedure: (§1) The study was a double-blind, randomized, placebo-controlled Phase 1 single ascending dose study in up to 6 cohorts in healthy females. Eligibility was assessed during a screening period of up to 28 days prior to enrollment. For the treatment period, subjects were admitted to the clinical research unit (CRU) one day prior to the dosing (Day −1). On Day 1, all subjects will received the assigned SC dose of RE104 HCl or placebo in a fed state (after domiciling overnight and consuming a planned evening meal on Day −1 and morning meal on Day 1 while at the CRU). Subjects were allowed to select snacks from a planned menu from 4 hours following dosing. Subjects were discharged from the clinic on Day 2 (−24 hours post-dose) after all required study procedures were completed and if deemed medically fit. Subjects returned to the clinic on Day 10 (±2 days) for a follow up visit.
The Drug Effect Questionnaire (DEQ) Feel/High is widely used in studies of acute subjective response to a variety of substances, to assess two key aspects of subjective experience: (1) the strength of substance effects and (2) desirability of substance effects (Morean et al., 2013). The modified DEQ assesses the extent to which subjects (1) feel any substance effect(s) and (2) feel high. This version of the DEQ includes the following items: “Do you feel a drug effect right now?” (FEEL); “Are you high right now?” (HIGH). FIG. 2 sets out the modified DEQ that was used.
The modified DEQ was used as an 11-point numeric rating scale (0-10) administered by a qualified staff member. The subjects were asked to verbally respond to indicate how strongly they feel the drug effect and how high they feel on the scale of 0-10 after being administered the study drug (Kollltveit et al., 2020).

[5] = Metabolite profiling in rat plasma after SC RE104; settings: 0- to 10-hour pooled plasma, SC 10, 25, or 75 mg/kg RE104
Procedure: Metabolite profiling and identification was performed using rat, dog, and nonhuman primate plasma samples after a single SC injection of RE104 (QPS, LLC, Newark, DE, USA).
Blood samples were centrifuged to obtain plasma. Plasma samples for rat and dog studies were pooled across time points to 1 sample per dose and sex separately; plasma samples from monkeys were pooled to generate 1 combined sample.
Metabolite profiling and identificationFor experiments performed in rats, blood samples were collected before dose and at 15 minutes, 30 minutes, and 1, 2, 4, 6, and 10 hours after dose. Blood samples from dogs were collected before dose and at 5 minutes, 30 minutes, and 1, 2, 4, 8, 12, and 24 hours after dose. Monkey blood samples were collected before dose and at 5 minutes, 15 minutes, 30 minutes, and 1, 1.5, 2, 4, 8, and 12 hours after dose. […]
The percent of RE104 and its metabolites in relation to the total area of compound-related material was obtained by integration of the extracted ion chromatogram peaks on the full-scan mass-chromatograms. The percent of peak area for each component relative to the total peak area was determined by using the following formula: Component % peak area=(peak area of component ×100%/total integrated peak area of compound-related material).

[6] = tested on: humans; settings: human, cited from earlier work
[7] = target: human recombinant 5-HT2A receptors (Homo sapiens, UniProt P28223); assay: 5-HT2A agonist radioligand binding assay ([125I]DOI)
Procedure: (§2) Increasing concentrations of RE104 were incubated with 0.2 nM [^125I]DOI in CHO cell cultures expressing human recombinant 5-HT2B receptors.
(§3) Radioligand concentration was measured by scintillation counting; compound binding was calculated as percent inhibition of the binding of [^125I]DOI. In agonist activity assays, test concentrations of RE104 were incubated with HEK-293 cells expressing human recombinant 5-HT2A receptors; IP1 production was detected using homogeneous time-resolved fluorescence. Activation was calculated as a percentage of the response to the positive control (10 μM 5-HT).
(§4) Inhibition constants were calculated by using the Cheng-Prusoff equation Ki=IC50/(1+L/KD), where L=radioligand concentration and KD=radioligand affinity for the receptor (determined with a Scatchard plot). In the functional activity assay test concentrations of RE104 were 10 nM, 30 nM, 100 nM, 300 nM, 1 μM, 3 μM, 10 μM, and 30 μM. EC50 and IC50 values were determined by nonlinear regression analysis of the concentration-response curves generated with mean replicate values using Hill equation curve fitting.

[8] = in vivo; settings: for half-life: male, cynomolgus monkey, plasma; for mean terminal half-life: monkey
Procedure: Two male cynomolgus monkeys were administered 3 treatments in a crossover study design (Calvert Laboratories, Inc, Scott Township, PA; QPS, LLC, Newark, DE, USA). In treatment 1, RE104 was administered as an IV bolus dose at 1 mg/kg. In treatment 2, RE104 was administered as an SC injection at 0.5 mg/kg, and in treatment 3, RE104 was administered PO at 5 mg/kg, with all dosing formulations prepared in phosphate buffered saline.

[9] = target: human recombinant 5-HT2B receptors (Homo sapiens, UniProt P41595); assay: 5-HT2B agonist radioligand binding assay ([125I]DOI)
Procedure: as §2, §3, §4

[10] = Plasma protein binding, human plasma; format: in vitro ADME; settings: human plasma proteins, 1 to 20 PM; read-out: plasma protein binding (bound)
[11] = Rat PK after single IV or SC RE104 HCl 2 mg/kg (Example 1)
[12] = in vivo; settings: male, beagle, dog, plasma, po, 5 mg/kg
Procedure: Two consecutive doses were separated by z7 days. Plasma samples were analyzed using an LC-MS/MS method (lower limit of quantification of 1.00 ng/mL for both analytes).
Pharmacokinetic parameters were calculated using Phoenix WinNonlin, version 6.3 or 8.2 (Certara, Princeton, NJ, USA).
For dog PK assessments, approximately 0.5 mL of blood was collected via superficial vein before dose and at 5 (for IV and SC injections only), 15, and 30 minutes and 1, 2, 4, 8, 16, 24, 48, and 72 hours post dose into tubes containing K2EDTA with 10 mM Dichlorvos as the anticoagulant and stabilizer, respectively.

[13] = Phase 1 FIH study: plasma pharmacokinetics (LC-MS/MS); format: in vivo; settings: female, plasma, human; for half-life: read-out: t1/2, mean (converted)
Procedure: as §1
The concentrations of RE104 and isoprocin in plasma were determined using a validated Liquid chromatography tandem mass spectrometry (LC-MS/MS) assay.

[14] = GLP 14-day extended single SC dose toxicity study in rats; settings: Sprague Dawley, rat, plasma, sc, 10 mg/kg
Procedure: In a GLP 14-day extended single SC dose toxicity study in rats, doses of 0 (PBS), 10, 25 and 75 mg/kg were evaluated. Animals were necropsied on Study Day 2 and Day 14 (also referred to as Recovery Day 13) post-dosing.
A non-GLP dose range study was performed in the dog in order to determine an MTD. Single SC doses of 7.5, 15 and 20 mg/kg were evaluated.

[15] = GLP 14-day extended single SC dose toxicity study in dogs; settings: beagle, dog, plasma, sc, 8 mg/kg
[16] = in PBS; cited from earlier work

human recombinant 5-HT2A receptors, sequence (P28223 whole entry): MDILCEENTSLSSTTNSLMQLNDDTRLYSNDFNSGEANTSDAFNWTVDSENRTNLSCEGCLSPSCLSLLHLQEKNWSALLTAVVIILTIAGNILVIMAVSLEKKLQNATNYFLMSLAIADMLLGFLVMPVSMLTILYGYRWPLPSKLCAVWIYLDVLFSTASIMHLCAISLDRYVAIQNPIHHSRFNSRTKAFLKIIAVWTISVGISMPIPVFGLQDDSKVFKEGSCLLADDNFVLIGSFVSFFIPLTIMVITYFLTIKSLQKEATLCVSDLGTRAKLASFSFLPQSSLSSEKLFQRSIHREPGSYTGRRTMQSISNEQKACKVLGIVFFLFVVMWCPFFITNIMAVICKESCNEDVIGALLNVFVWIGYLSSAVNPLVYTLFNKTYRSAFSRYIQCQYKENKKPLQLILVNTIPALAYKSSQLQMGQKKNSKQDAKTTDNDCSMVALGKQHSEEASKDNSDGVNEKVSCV
human recombinant 5-HT2B receptors, sequence (P41595 whole entry): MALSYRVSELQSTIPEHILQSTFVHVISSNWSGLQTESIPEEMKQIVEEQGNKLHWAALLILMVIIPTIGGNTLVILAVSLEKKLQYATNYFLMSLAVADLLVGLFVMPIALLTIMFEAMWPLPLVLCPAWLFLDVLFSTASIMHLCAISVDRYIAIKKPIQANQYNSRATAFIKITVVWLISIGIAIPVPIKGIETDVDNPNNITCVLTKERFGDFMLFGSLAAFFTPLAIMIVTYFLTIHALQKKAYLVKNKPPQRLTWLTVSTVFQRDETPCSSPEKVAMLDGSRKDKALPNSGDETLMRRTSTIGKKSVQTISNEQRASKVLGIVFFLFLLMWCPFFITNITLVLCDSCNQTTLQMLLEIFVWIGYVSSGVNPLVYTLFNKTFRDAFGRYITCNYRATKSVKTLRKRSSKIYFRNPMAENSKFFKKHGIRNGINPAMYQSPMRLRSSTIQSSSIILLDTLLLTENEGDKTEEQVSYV

CC(C)N(CCc1c[nH]c2cccc(O)c12)C(C)C [4-OH-DiPT, 3-(2-diisopropylamino-ethyl)-1H-indol-4-ol]
metabolites formed [1]: primarily producing O-glucuronide and negligible amounts of other metabolites
share of the total peak area [2]: 4.42%
fraction unbound [3]: 0.4 to 0.7
mean DEQ-High score [4]: ≤ 2
share of total metabolites in plasma [5]: > 67%
onset of effect (mild physical awareness) ([6]; 10 mg orally (Shulgin)): ≤ 1 h
recovery ([6]; 20 mg oral dose (Shulgin)): ≤ 3 h
onset of effect ([6]; 20 mg orally (Shulgin)): ≤ 15 min
IC50 ([7]; read-out: IC50 at 5-HT2A, agonist radioligand assay): 150 nM
Ki ([7]; read-out: binding Ki at the 5-HT2A receptor, radioligand inhibition binding, HEK-293 cells): 120 nM
half-life ([8]; iv, 1 mg/kg): 37.9 min
half-life ([8]; sc, 0.5 mg/kg): 57 min
mean terminal half-life ([8]; RE104 IV dosing): 37.8 min
mean terminal half-life ([8]; RE104 SC dosing): 57 min
IC50 [9]: 42 nM
fraction unbound [10]: 0.07 to 0.2
elimination half-life (t1/2) in plasma ([11]; RE104 HCl 2 mg/kg SC): 40.7 min
half-life ([11]; plasma, iv, 2 mg/kg): 25.6 min
AUC(0-t) [12]: 103 ng·h/mL
Cmax [12]: 21.4 ng/mL
Tmax [12]: 4 h
Cmax ([13]; RE104 dose 5.5 mg SC (n = 6)): 18 ng/mL
Tmax ([13]; RE104 dose 5.5 mg SC (n = 6)): 1.12 h
half-life ([13]; RE104 dose 5.5 mg SC (n = 6)): 205 min
Cmax ([13]; RE104 dose 11 mg SC (n = 6)): 60 ng/mL
Tmax ([13]; RE104 dose 11 mg SC (n = 6)): 1.21 h
half-life ([13]; RE104 dose 11 mg SC (n = 6)): 213 min
Cmax ([13]; RE104 dose 22 mg SC (n = 6)): 77 ng/mL
Tmax ([13]; RE104 dose 22 mg SC (n = 6)): 1.42 h
half-life ([13]; RE104 dose 22 mg SC (n = 6)): 196 min
Cmax ([13]; RE104 dose 33 mg SC (n = 9)): 137 ng/mL
Tmax ([13]; RE104 dose 33 mg SC (n = 9)): 1.07 h
half-life ([13]; RE104 dose 33 mg SC (n = 9)): 167 min
Cmax ([13]; RE104 dose 38 mg SC (n = 6)): 124 ng/mL
Tmax ([13]; RE104 dose 38 mg SC (n = 6)): 1.08 h
half-life ([13]; RE104 dose 38 mg SC (n = 6)): 167 min
Cmax ([13]; RE104 dose 44 mg SC (n = 3)): 275 ng/mL
Tmax ([13]; RE104 dose 44 mg SC (n = 3)): 1.25 h
half-life ([13]; RE104 dose 44 mg SC (n = 3)): 226 min
AUC(0-t) [14]: 1230 ng·h/mL
Cmax [14]: 542 ng/mL
AUC(0-t) [15]: 1010 ng·h/mL
Cmax [15]: 360 ng/mL
solubility [16]: < 2 mg/mL
